From patent US20120005765A1, “ANIMAL MODEL FOR PARKINSON'S DISEASE” (Saint Louis University, priority 2010, published 2012)
Entries after “also recorded” stand apart in the source; their conditions may differ. Like-named read-outs stand apart in the source and are kept apart here.

Experiments:
rats = test: Rotational asymmetry after apomorphine; assay type: in vivo, rat; conditions: apomorphine 0.4 mg/kg, n=7
Description: (§1) Determination of DOPAL-induced Parkinson's disease-like behavior Injections of DOPAL or ALDH1A1 antisense oligo into rat SN. To determine if increased levels of DOPAL in SN produces a behavioral model of PD, 3 groups of rats were tested: unilateral SN injection of 4 μg DOPAL in 6 rats; unilateral SN injection of 0.56 μg antisense oligonucleotide (oligo) targeted to aldehyde dehydrogenase (ALDH1A1) mRNA, the DOPAL catabolic enzyme in 3 rats; 5 non-injected rats. After 5-7 weeks, rats were injected with apomorphine (0.4 mg/kg, subcutaneously) and rotational asymmetry determined in each group just prior to sacrifice. After the brains were fixed and sectioned, the SN, and forebrain were stained immunohistochemically for tyrosine hydroxylase immunoreactivity (THir). See Section 3.
Determination of rotational asymmetry. Rats first were injected subcutaneously with the dopamine agonist apomorphine (0.4 mg/kg) dissolved in 0.1 ascorbate saline solution. After waiting 5 min in their home cage, they were placed in a hemispheric rotation bowl 40 cm wide and 20 cm deep. Rotational behavior was then determined for 30 min and the number of ipsilateral and contralateral turns quantified by observation.
Rotational asymmetry was assessed to quantify the effect of unilateral depletions of striatal dopamine from disruptions of nigrostriatal circuitry. The rotational asymmetry behavior of rats (n=6) changed dramatically after injections with DOPAL (FIG. 5).
Behavioral asymmetry is considered the standard behavioral test for rodent models of Parkinson's disease. The column on the right is a summary of all the behaviors recorded in the rotational asymmetry test for all the rats ([…]).

ALDH1A1 = test: Antisense inhibition of ALDH1A1 expression in rat substantia nigra, immunoblot; assay type: in vivo; conditions: 1 week or 2 weeks; for optical density of ALDH1A1 Western blot bands, ipsilateral vs contralateral: Unscan software
Description: Antisense inhibition of ALDH1A1 expression in rats.
The immunoreactive bands of the Western blot of FIG. 8 were analyzed by Unscan it soft ware (Silk Scientific) and their optical densities plotted in FIG. 9.

ALDH = conditions: Lamensdorf et al. 2000; cited from earlier work
PC12 cells = test: DOPAL toxicity in vitro, viable PC12 cell count (trypan blue)
Description: Determination of DOPAL toxicity in vitro Toxicity experiments were essentially as described previously. PC12 cultures were initially expanded in T-75 flasks with 20 ml Dulbecco's Modified Eagle's Medium supplemented with 4.5 g/l glucose, 4 mM L-glutamine, 5% fetal calf serum, 10% horse serum, 1000 units/l penicillin, and 100 mg/l streptomycin. Cells were transferred to six well culture plates with 2 ml media and grown to 1.5×10^5 cells/well, treated with 50 ng/ml nerve growth factor (NGF), and maintained in NGF-containing media for 7 d prior to experimentation. The medium was changed every 2-3 d. […] During the experiments, the medium was replaced once a day. Cells were detached with buffered saline containing EDT A, centrifuged at 200×g and resuspended in trypan blue for counting of viable cells. […] DOPAL and other compounds were added as described in the description of the figure and examples. Data was analyzed by ANOVA.
DOPAL, as well as other physiologically metabolites and adducts, were added to PC12 cells in culture at concentrations that were physiologically relevant.

α-synuclein = α-synuclein (Homo sapiens, UniProt P37840); test: DOPAL-triggered α-synuclein aggregation in test tube, Western blot; assay type: biochemical; conditions: AS 2 μM, 37° C., up to 4 h, DOPAL 1.5-1,500 μM
Description: Determination of DOPAL-triggered α-synuclein aggregation in vitro. Western blot of DOPAL-triggered AS aggregation in test tube experiments. DOPAL was dissolved in 1% benzyl alcohol, then diluted to a final concentration of 1.5-1,500 μM as described previously. AS (2 μM) was incubated at 37° C. in 20 μl of 100 mM tris-HCl buffer (pH 7.2) with or without DA, DOPAL, DOPAC, or homovanillic acid (HVA) for up to 4 h. The reaction was stopped by heating at 70° C. for 3 min in SDS buffer. The entire mixture was transferred to the appropriate gel (vide infra).
SDS-PAGE and immunoblotting. Ten micrograms of protein (estimated by Bio Rad protein reagent) was resolved by electrophoresis on 4-12% bis-tris gels run with MES SDS buffer, and 3-8% tris-acetate gels using tris-acetate running buffer. For immunoblotting, the protein was transferred to PVDF blotting membranes with […] pore size, blocked with 5% milk protein in tris buffered saline (TBS) containing 0.1% Tween 20, and incubated for 1 h with a AS 202 monoclonal antibody (1:2,500 dilution). Blots were washed five times with 5% milk protein in TBS and probed with horseradish peroxidase-conjugated anti-mouse secondary antibody (1:2,500). Blots were washed five times with TBS containing. 0.5% Tween 20 before detection with Super Signal (Pierce).
Western blot analysis was performed to analyze DOPAL-induced aggregation of α-synuclein (FIG. 1). […]

DA SN neurons = test: TH and NeuN immunohistochemistry after ALDH1A1 antisense injections into substantia nigra; assay type: in vivo, rat
Description: as §1
An antisense compound was used to decrease expression of ALDH1A1, which is responsible for breaking down DOPAL within the neuronal cell body and its effects on dopamine SN neurons and behavior were examined (FIGS. 6, 7). Three unilateral injections (total 800 nl; 700 pg/nl) of an antisense compound oligonucleotide (SEQ ID NO: 1), directed against the enzyme ALDH1A1, and comprising a phosphorothioate backbone, were made into the substantia nigra nucleus of the rat. The injections were placed in the pars compacta portion of the substantia nigra, the subnucleus where most of the dopaminergic neurons are found.

[1] = Experiment 1, 66 μM, None 299 ± 19

5″-AGCAGACGATCTCTCTCCATT-3″ (DNA, backbone and methylation of C not given here) [Antisense 2, 21-base antisense oligonucleotide complementary to residues 313 to 333 of rat ALDH1A1 mRNA]
rotational asymmetry after unilateral antisense injection into SN (rats): dramatic shifts in its rotational preference | ALDH1A1 protein, ipsilateral injected side vs contralateral side, Western blot (ALDH1A1): Loss of ALDH1A1 | ALDH1A1 protein, ipsilateral injected side vs contralateral side, Western blot (ALDH1A1; listed as antisense 2): loss of ALDH1A1 protein | optical density of ALDH1A1 Western blot bands, ipsilateral vs contralateral (ALDH1A1): loss of ALDH1A1

O=c1c(-c2ccc(O)cc2)coc2cc(O)ccc12 [daidzein]
inhibiting ALDH in PC-12 cells (ALDH): effective

C=C(C)[C@H]1Cc2c(ccc3c2O[C@@H]2COc4cc(OC)c(OC)cc4[C@@H]2C3=O)O1 [Rotenone, rotenone]
PC 12 cells/well × 103 (PC12 cells; Experiment 2, 10 μM, None 143 ± 12): 127 ± 9 cells/well × 103

Oc1ccc(CC2NCCc3cc(O)c(O)cc32)cc1O (stereo not shown) [Tetrahydropapaveroline]
PC 12 cells/well × 103 (PC12 cells; [1]): 346 ± 15 cells/well × 103 | toxic in vitro at physiological levels (PC12 cells; PC12 cells in culture): not

COc1cc(CC(=O)O)ccc1O [HVA, homovanillic acid]
PC 12 cells/well × 103 (PC12 cells; [1]): 322 ± 20 cells/well × 103 | toxic in vitro at physiological levels (PC12 cells; PC12 cells in culture): not

O=C(O)Cc1ccc(O)c(O)c1 [DOPAC, 3,4-dihydroxyphenylacetic acid]
toxic in vitro at physiological levels (PC12 cells): not | PC 12 cells/well × 103 (PC12 cells; rat, 66 μM): 334 ± 10 cells/well × 103

NCCc1ccc(O)c(O)c1 [DA, dopamine]
toxic in vitro at physiological levels (PC12 cells): not | PC 12 cells/well × 103 (PC12 cells; rat, 66 μM): 329 ± 21 cells/well × 103 | aggregation of α-synuclein oligomers in vitro (α-synuclein): not

5″-TGCAGGGGAAGACATTGCTGGT-3″ [Antisense 1]
rotational asymmetry after unilateral antisense injection into SN (rats): dramatic shifts in its rotational preference | ALDH1A1 protein, ipsilateral injected side vs contralateral side, Western blot (ALDH1A1): Loss of ALDH1A1 | ALDH1A1 protein, ipsilateral injected side vs contralateral side, Western blot (ALDH1A1; listed as antisense 1): loss of ALDH1A1 protein | optical density of ALDH1A1 Western blot bands, ipsilateral vs contralateral (ALDH1A1): loss of ALDH1A1 | neurons immediately adjacent to the injection site, Neun immunostaining (DA SN neurons; case R2504): have died | intensity of TH staining in the injected SN (DA SN neurons; three unilateral injections, total 800 nl, 700 pg/nl): slightly less | dopaminergic projections to rostral brain / ventral striatum, TH immunostaining (DA SN neurons; three unilateral injections, total 800 nl, 700 pg/nl, 5 or 7 weeks, listed as SEQ ID NO: 1): dramatically reduced; also recorded: absent/decreased
